According to the OPERA property sets (Mansouri et al. 2018):

Settings: for log10 BCF / log10 biotransformation half-life (days): fish

| Structure (SMILES) | melting point | boiling point | further results |
| --- | --- | --- | --- |
| CCc1ccccc1-n1c(C)nc2ccccc2c1=O | 81 °C | – | – |
| C1CSCCO1 | – | 147 °C | – |
| CCOC(=O)C(F)(F)C(F)(F)F | 75.5 °C | – | – |
| Cc1ccc2[nH]c(C)c(C)c2c1 | 122 °C | 297 °C | – |
| CC(C)(C)c1ccc2ccccc2c1 | -4 °C | 276 °C | – |
| ClCc1cccc(CCl)c1 | 34.2 °C | 252 °C | – |
| Clc1c(Cl)c(Cl)c2c(oc3ccccc32)c1Cl | 169 °C | – | – |
| COc1ccc2c3c1O[C@H]1C(=O)CC[C@@]4(O)[C@@H](C2)N(C)CC[C@]314 | 219 °C | – | – |
| O=[N+]([O-])c1ccccc1-c1ccccc1[N+](=O)[O-] | 126 °C | 305 °C | – |
| OCCC1CCCCN1 (stereo not drawn) | 69 °C | 202 °C | – |
| N#CCCCCCCCCCCC(=O)O | – | – | ready biodegradability: readily biodegradable |
| COP(=S)(OC)Oc1ccc(SC)c(C)c1 | 7.5 °C | – | log10 Koc (L/kg): 3.18; log10 vapour pressure (mmHg): -4.98; log10 BCF: 2.52; log10 biotransformation half-life (days): -0.36 |
| CCCOc1ccc(O)cc1 | 56.5 °C | – | – |
| COc1ccc(C(C)=O)cc1 | 38.5 °C | 258 °C | log10 vapour pressure (mmHg): -2.19 |
| FC(F)(F)C(F)(F)C(F)(F)C(F)(F)C(F)(F)C(F)(F)C(F)(F)C(F)(F)I | 20.8 °C | 160 °C | – |
| CCOCOC(=O)c1ccccc1Nc1c(Cl)ccc(C)c1Cl | 73.5 °C | – | – |
| CCCC(=O)Oc1c(Br)cc(C#N)cc1Br | – | – | log10 Koc (L/kg): 3.03 |
| Oc1ccccc1O | 105 °C | 246 °C | log10 vapour pressure (mmHg): -2.44; ready biodegradability: readily biodegradable |
| O=CC(Br)(Br)Br | -57.5 °C | 174 °C | log10 vapour pressure (mmHg): 0.183 |
| CCOc1ccc(N=Nc2ccc(OCC)cc2)cc1 | 162 °C | – | – |
| COc1cc(C=CC=O)ccc1O | 84 °C | – | – |
| Cn1c(=O)cc(O)c2ccccc21 | 270 °C | – | – |

| Structure (SMILES) | melting point | boiling point | further results |
| --- | --- | --- | --- |
| CC#CCC(C)C | -92.9 °C | 102 °C | – |
| O=C(O)c1ccccc1C(=O)O | – | – | log10 Koc (L/kg): 1.07; log10 vapour pressure (mmHg): -6.2; ready biodegradability: readily biodegradable |
| Cc1ccc(Cl)c(N)c1 | 29.5 °C | 229 °C | – |
| C#C[C@]1(O)CC[C@H]2[C@@H]3CCC4=CC(=O)CC[C@]4(C)[C@H]3CC[C@@]21C | 272 °C | – | – |
| Nc1ccc2cc3ccccc3cc2c1 | 239 °C | – | log10 Koc (L/kg): 4.45 |
| CN(C)Cc1ccccc1 | – | 181 °C | ready biodegradability: not readily biodegradable; log10 BCF: 1.15 |
| Clc1cccc(-c2c(Cl)c(Cl)cc(Cl)c2Cl)c1Cl | – | – | log10 Henry constant (atm·m³/mol): -4.31; log10 vapour pressure (mmHg): -5.96 |
| O=C(Cl)c1ccc(Cl)cc1Cl | 16.5 °C | – | – |
| COC(C)(C)C | -109 °C | 55.2 °C | log10 Henry constant (atm·m³/mol): -3.23; log10 Koa: 2.58; log10 vapour pressure (mmHg): 2.4; ready biodegradability: not readily biodegradable; log10 BCF: 0.18; log10 biotransformation half-life (days): -0.88 |
| Cc1cc(Cl)ccc1N=CN(C)C | 35 °C | – | log10 Koc (L/kg): 2.91; log10 vapour pressure (mmHg): -3.03 |
| CNc1ccc(C(=O)O)cc1 | – | – | ready biodegradability: not readily biodegradable; log10 BCF: 0.38 |
| CCC(C)(O)C(C)C (stereo not drawn) | – | 140 °C | – |
| CC(C)OC(C)C | -86.8 °C | 68.5 °C | log10 Henry constant (atm·m³/mol): -2.59; log10 Koa: 2.66; log10 vapour pressure (mmHg): 2.17; ready biodegradability: not readily biodegradable |
| O=C(O)[C@@H](O)[C@H](O)[C@H](O)[C@@H](O)C(=O)O | 126 °C | – | – |
| CC1(C)CON(Cc2ccccc2Cl)C1=O | 25 °C | 275 °C | log10 Koc (L/kg): 2.44; log10 vapour pressure (mmHg): -3.84 |
| CC(C)(C)C(=O)C(Oc1ccc(Cl)cc1)n1cncn1 (stereo not drawn) | 82 °C | – | log10 Koc (L/kg): 2.71; log10 vapour pressure (mmHg): -7.82 |
| FC(Cl)C(F)(F)Cl (stereo not drawn) | -78 °C | 29.5 °C | log10 vapour pressure (mmHg): 2.79 |
| CNC[C@H](O)c1cccc(O)c1.Cl | 142 °C | – | – |
| Cc1cc(C)c(C)c(O)c1 | 93.5 °C | 230 °C | log10 Koc (L/kg): 3.61; log10 vapour pressure (mmHg): -2.42 |
| CCCCCCCCCCCCCCCCCCOCC(O)CO (stereo not drawn) | 70.5 °C | – | – |
| O=C(O)CSc1ccccc1 | 65 °C | – | – |
| OC[C@H]1OC(O)[C@H](O)[C@@H](O)[C@@H]1O (stereo partly drawn) | 133 °C | – | – |

| Structure (SMILES) | melting point | boiling point | further results |
| --- | --- | --- | --- |
| CCC(CO)(CO)[N+](=O)[O-] | 57.5 °C | – | – |
| CC(=O)OC/C=C(\C)CCC=C(C)C | – | 238 °C | log10 vapour pressure (mmHg): -1.48 |
| CCCCCCCCCCCC(=O)OCCOCCO | 17.5 °C | – | – |
| Cc1cc(Cl)nc(Cl)n1 | 46.5 °C | 219 °C | – |
| C=CCBr | -119 °C | 70.1 °C | – |
| COc1cccc(C(=O)NN)c1 | 94 °C | – | – |
| O=C(O)C(O)(O)C(O)(O)C(=O)O | 114 °C | – | – |
| CC(C(=O)O)c1ccc(C(=O)c2ccccc2)s1 (stereo not drawn) | 96 °C | – | – |
| C=CC1CCC1C=C (stereo not drawn) | – | 112 °C | – |
| Nc1ccc2ccccc2c1S(=O)(=O)O | 180 °C | – | ready biodegradability: not readily biodegradable; log10 BCF: 0.78 |
| CN(C)[C@@H]1C(O)=C(C(N)=O)C(=O)[C@@]2(O)C(O)=C3C(=O)c4c(O)cccc4[C@@](C)(O)[C@H]3[C@H](O)[C@@H]12 | 184 °C | – | – |
| Clc1cc2c(Cl)c(Cl)c(Cl)c(Cl)c2c(Cl)c1Cl | – | – | log10 vapour pressure (mmHg): -7.07 |
| CCC(COCCOc1c(I)cc(I)c(NC(C)=O)c1I)C(=O)O (stereo not drawn) | 130 °C | – | – |
| O=C(O)C1=CCCc2ccccc21 | 125 °C | 306 °C | – |
| CC(C)Nc1ccccc1 | -10 °C | 203 °C | – |
| COC(=O)CCCCCCCCC(=O)OC | 38 °C | – | – |
| O=C(O)c1cc[n+]([O-])cc1 | 270 °C | – | – |
| COC(=O)CCl | -32.1 °C | 130 °C | log10 vapour pressure (mmHg): 0.882; ready biodegradability: readily biodegradable |
| O=C(Nc1ccc(Cl)cc1)c1cc(Cl)cc(Cl)c1O | 142 °C | – | – |
| CC(=O)O[C@@H]1CC2CCC1(C)C2(C)C (stereo partly drawn) | 29 °C | 221 °C | log10 vapour pressure (mmHg): -0.642 |
| Cc1ccc(O)c(C(=O)O)c1 | 151 °C | – | – |
| CN=C=O | -45 °C | 39.5 °C | log10 vapour pressure (mmHg): 2.54 |

| Structure (SMILES) | melting point | boiling point | further results |
| --- | --- | --- | --- |
| O=C(O)C1CCCCN1 (stereo not drawn) | 264 °C | – | – |
| C[Si](C)(Cl)CBr | – | 131 °C | – |
| CC(=O)Nc1ccc(C)cc1C | 129 °C | – | – |
| C[N+](C)(C)CCCl.[Cl-] | – | – | log10 vapour pressure (mmHg): -7.12 |
| C#Cc1ccccc1 | -44.8 °C | 143 °C | log10 vapour pressure (mmHg): 0.314 |
| CC(=O)Nc1ccccc1-c1ccccc1 | 121 °C | 355 °C | – |
| Cc1c(C2(c3cc(C(C)C)c(O)c(Br)c3C)OS(=O)(=O)c3ccccc32)cc(C(C)C)c(O)c1Br | 201 °C | – | – |
| FC(Cl)C(Cl)(Cl)Cl (stereo not drawn) | -95.3 °C | 116 °C | – |
| CC(C)(C)CC(=O)Cl | – | 130 °C | – |
| COc1c(OC)c(OC(C)=O)c2cc(Cl)ccc2c1OC(C)=O | 91.5 °C | – | – |
| CCCN(CCC)c1c([N+](=O)[O-])cc(S(N)(=O)=O)cc1[N+](=O)[O-] | 141 °C | – | log10 Koc (L/kg): 3.4; ready biodegradability: not readily biodegradable |
| CC(C)(C)CC(C)(C)N | – | 140 °C | – |
| Clc1ccc(Oc2cc(Cl)c(Cl)cc2Cl)cc1 | – | – | log10 biotransformation half-life (days): 1.93 |
| O=C1C(=Cc2ccccc2)CCCC1=Cc1ccccc1 | 118 °C | – | – |
| CC(Cl)(Cl)C(Cl)Cl | – | 153 °C | – |
| FC(Cl)CCl (stereo not drawn) | -60 °C | 73.7 °C | – |
| O=C1C=C2C(=CCOC2O)O1 (stereo not drawn) | 111 °C | – | – |
| CC(C)c1ccc(Cl)cc1 | -12.3 °C | 198 °C | – |
| CCCCCCCC/C=C\CCCCCCCCCCCCC | – | 378 °C | log10 vapour pressure (mmHg): -4.45 |
